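Cultured in 96-well plates, cells were exposed to test compound for 48 hours across five concentrations. GI50 = concentration required for 50% inhibition of growth.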 Active and inactive are the calls of the source. Cut-off read from the data, not from the text of the source: active = GI50 up to about 1.1 µM and inactive = higher.
Key:
Experiment in all cases: inhibition of tumour cell growth, NCI panel, 48 h
NCI-H226 = test system: NCI-H226
SK-MEL-2 = test system: SK-MEL-2
OVCAR-8 = test system: OVCAR-8
PC-3 = test system: PC-3
Malme-3M = test system: Malme-3M
MCF7 = test system: MCF7
ACHN = test system: ACHN
SK-OV-3 = test system: SK-OV-3
HT-29 = test system: HT-29
M14 = test system: M14
RXF 393 = test system: RXF 393
UACC-62 = test system: UACC-62
COLO 205 = test system: COLO 205
NCI/ADR-RES = test system: NCI/ADR-RES
NCI-H522 = test system: NCI-H522
OVCAR-3 = test system: OVCAR-3
MDA-N = test system: MDA-N
CAKI-1 = test system: CAKI-1
CCRF-CEM = test system: CCRF-CEM
EKVX = test system: EKVX

COc1ccc(C(O)/C(=N/N)c2nc3ccc(Cl)cc3nc2O)cc1 (centres undefined)
GI50 (NCI-H226): > 100 µM (inactive)
GI50 (SK-MEL-2): > 100 µM (inactive)
GI50 (OVCAR-8): > 100 µM (inactive)
GI50 (PC-3): > 100 µM (inactive)
GI50 (Malme-3M): > 100 µM (inactive)
GI50 (MCF7): 62.7 µM (inactive)
GI50 (ACHN): > 100 µM (inactive)
GI50 (SK-OV-3): > 100 µM (inactive)
GI50 (HT-29): > 100 µM (inactive)
GI50 (M14): > 100 µM (inactive)
GI50 (RXF 393): > 100 µM (inactive)
GI50 (UACC-62): > 100 µM (inactive)
GI50 (COLO 205): > 100 µM (inactive)
GI50 (NCI/ADR-RES): > 100 µM (inactive)
GI50 (NCI-H522): > 100 µM (inactive)
GI50 (OVCAR-3): > 100 µM (inactive)
GI50 (MDA-N): > 100 µM (inactive)
GI50 (CAKI-1): > 100 µM (inactive)
GI50 (CCRF-CEM): > 100 µM (inactive)
GI50 (EKVX): > 100 µM (inactive)

C[N+]1(C)C/C(=C\C=C\c2ccccc2)C(=O)/C(=C/C=C/c2ccccc2)C1
GI50 (NCI-H226): 22.3 µM (inactive)
GI50 (SK-MEL-2): 17 µM (inactive)
GI50 (OVCAR-8): 14.5 µM (inactive)
GI50 (PC-3): 10.4 µM (inactive)
GI50 (Malme-3M): 16 µM (inactive)
GI50 (MCF7): 10.2 µM (inactive)
GI50 (ACHN): 49.7 µM (inactive)
GI50 (SK-OV-3): 37.7 µM (inactive)
GI50 (HT-29): 9.53 µM (inactive)
GI50 (M14): 16.3 µM (inactive)
GI50 (RXF 393): 21.5 µM (inactive)
GI50 (UACC-62): 3.46 µM (inactive)
GI50 (COLO 205): 0.773 µM (active)
GI50 (NCI/ADR-RES): > 100 µM (inactive)
GI50 (NCI-H522): 3.78 µM (inactive)
GI50 (OVCAR-3): 8.61 µM (inactive)
GI50 (MDA-N): 4.48 µM (inactive)
GI50 (CAKI-1): 65 µM (inactive)
GI50 (CCRF-CEM): 1.78 µM (inactive)
GI50 (EKVX): 45.1 µM (inactive)

O=[N+]([O-])c1cc(C(F)(F)F)ccc1S(=O)(=O)N[C@@H]1CCCC[C@H]1NS(=O)(=O)c1ccc(C(F)(F)F)cc1[N+](=O)[O-]
GI50 (NCI-H226): 7.52 µM (inactive)
GI50 (SK-MEL-2): 2.82 µM (inactive)
GI50 (OVCAR-8): 2.86 µM (inactive)
GI50 (PC-3): 3.11 µM (inactive)
GI50 (Malme-3M): 2.49 µM (inactive)
GI50 (MCF7): 1.72 µM (inactive)
GI50 (ACHN): 2.7 µM (inactive)
GI50 (SK-OV-3): 13.6 µM (inactive)
GI50 (HT-29): 3.37 µM (inactive)
GI50 (M14): 2.75 µM (inactive)
GI50 (RXF 393): 2.45 µM (inactive)
GI50 (UACC-62): 3.81 µM (inactive)
GI50 (COLO 205): 2.78 µM (inactive)
GI50 (NCI/ADR-RES): 2.51 µM (inactive)
GI50 (NCI-H522): 2.45 µM (inactive)
GI50 (OVCAR-3): 2.38 µM (inactive)
GI50 (MDA-N): 3.63 µM (inactive)
GI50 (CAKI-1): 2.65 µM (inactive)
GI50 (CCRF-CEM): 2.72 µM (inactive)
GI50 (EKVX): 6.5 µM (inactive)

CCOC(=O)c1nc2cc(C(F)(F)F)ccc2nc1Nc1ccc(Cl)c(Cl)c1
GI50 (NCI-H226): > 100 µM (inactive)
GI50 (SK-MEL-2): > 100 µM (inactive)
GI50 (OVCAR-8): > 100 µM (inactive)
GI50 (PC-3): 75.2 µM (inactive)
GI50 (Malme-3M): > 100 µM (inactive)
GI50 (MCF7): > 100 µM (inactive)
GI50 (ACHN): > 100 µM (inactive)
GI50 (SK-OV-3): 97.9 µM (inactive)
GI50 (HT-29): 66.8 µM (inactive)
GI50 (M14): > 100 µM (inactive)
GI50 (RXF 393): > 100 µM (inactive)
GI50 (UACC-62): > 100 µM (inactive)
GI50 (COLO 205): > 100 µM (inactive)
GI50 (NCI/ADR-RES): > 100 µM (inactive)
GI50 (NCI-H522): > 100 µM (inactive)
GI50 (OVCAR-3): > 100 µM (inactive)
GI50 (MDA-N): > 100 µM (inactive)
GI50 (CAKI-1): > 100 µM (inactive)
GI50 (CCRF-CEM): 67.5 µM (inactive)
GI50 (EKVX): > 100 µM (inactive)

O=C(NC(=O)c1ccccc1[N+](=O)[O-])Nc1ccc(Oc2ncc(Br)cn2)c(Cl)c1
GI50 (NCI-H226): 0.0148 µM (active)
GI50 (SK-MEL-2): 0.0213 µM (active)
GI50 (OVCAR-8): 0.0301 µM (active)
GI50 (PC-3): 0.029 µM (active)
GI50 (Malme-3M): 0.0138 µM (active)
GI50 (MCF7): 0.0265 µM (active)
GI50 (ACHN): 0.0508 µM (active)
GI50 (SK-OV-3): 0.0269 µM (active)
GI50 (HT-29): 0.0175 µM (active)
GI50 (M14): < 0.016 µM (active)
GI50 (RXF 393): 0.00771 µM (active)
GI50 (UACC-62): 0.019 µM (active)
GI50 (COLO 205): 0.046 µM (active)
GI50 (NCI/ADR-RES): 0.0198 µM (active)
GI50 (NCI-H522): 0.0131 µM (active)
GI50 (OVCAR-3): 0.0252 µM (active)
GI50 (MDA-N): 0.00857 µM (active)
GI50 (CAKI-1): 0.0194 µM (active)
GI50 (CCRF-CEM): 0.0284 µM (active)
GI50 (EKVX): 0.0348 µM (active)

COC(=O)[C@H](Cc1ccccc1)NC(=O)N1CCCN(C(=O)N[C@@H](Cc2ccccc2)C(=O)OC)CCCN(C(=O)N[C@@H](Cc2ccccc2)C(=O)OC)CCC1
GI50 (NCI-H226): 16.5 µM (inactive)
GI50 (SK-MEL-2): 15 µM (inactive)
GI50 (OVCAR-8): 20.7 µM (inactive)
GI50 (PC-3): 15.8 µM (inactive)
GI50 (Malme-3M): 17.2 µM (inactive)
GI50 (MCF7): 18.2 µM (inactive)
GI50 (ACHN): 17.1 µM (inactive)
GI50 (SK-OV-3): 22.8 µM (inactive)
GI50 (HT-29): 16.8 µM (inactive)
GI50 (M14): 18 µM (inactive)
GI50 (RXF 393): 16.9 µM (inactive)
GI50 (UACC-62): 16.2 µM (inactive)
GI50 (COLO 205): 18 µM (inactive)
GI50 (NCI/ADR-RES): 30.8 µM (inactive)
GI50 (NCI-H522): 18.9 µM (inactive)
GI50 (OVCAR-3): 16.9 µM (inactive)
GI50 (MDA-N): 26.1 µM (inactive)
GI50 (CAKI-1): 25.5 µM (inactive)
GI50 (CCRF-CEM): 32.5 µM (inactive)
GI50 (EKVX): 21.8 µM (inactive)

CCOC(=O)c1ccc(C(=O)/C(C(C)=O)=C2\CCCN2C)n1C
GI50 (NCI-H226): > 100 µM (inactive)
GI50 (SK-MEL-2): > 100 µM (inactive)
GI50 (OVCAR-8): > 100 µM (inactive)
GI50 (PC-3): > 100 µM (inactive)
GI50 (Malme-3M): > 100 µM (inactive)
GI50 (MCF7): 61.7 µM (inactive)
GI50 (ACHN): > 100 µM (inactive)
GI50 (SK-OV-3): 30.7 µM (inactive)
GI50 (M14): > 100 µM (inactive)
GI50 (RXF 393): 29.5 µM (inactive)
GI50 (UACC-62): 49.1 µM (inactive)
GI50 (COLO 205): > 100 µM (inactive)
GI50 (NCI/ADR-RES): 83.8 µM (inactive)
GI50 (NCI-H522): 57.5 µM (inactive)
GI50 (OVCAR-3): 99.8 µM (inactive)
GI50 (MDA-N): 86.3 µM (inactive)
GI50 (CAKI-1): > 100 µM (inactive)
GI50 (CCRF-CEM): 52.5 µM (inactive)
GI50 (EKVX): 18.2 µM (inactive)

COc1ccccc1C1(c2c(OC)c(=O)c2=O)SCCCS1
GI50 (NCI-H226): 85.7 µM (inactive)
GI50 (SK-MEL-2): > 100 µM (inactive)
GI50 (OVCAR-8): 67.1 µM (inactive)
GI50 (PC-3): > 100 µM (inactive)
GI50 (Malme-3M): 62.5 µM (inactive)
GI50 (MCF7): > 100 µM (inactive)
GI50 (ACHN): > 100 µM (inactive)
GI50 (SK-OV-3): > 100 µM (inactive)
GI50 (HT-29): > 100 µM (inactive)
GI50 (M14): > 100 µM (inactive)
GI50 (RXF 393): 44.5 µM (inactive)
GI50 (UACC-62): > 100 µM (inactive)
GI50 (COLO 205): > 100 µM (inactive)
GI50 (NCI/ADR-RES): 73.6 µM (inactive)
GI50 (NCI-H522): 27.4 µM (inactive)
GI50 (OVCAR-3): 86.7 µM (inactive)
GI50 (MDA-N): > 100 µM (inactive)
GI50 (CAKI-1): > 100 µM (inactive)
GI50 (CCRF-CEM): 82.6 µM (inactive)
GI50 (EKVX): 75.2 µM (inactive)

COC(=O)C/N=C1\NC(=S)N(Cc2ccc(OC)cc2)C12CCCC2
GI50 (NCI-H226): > 100 µM (inactive)
GI50 (SK-MEL-2): > 100 µM (inactive)
GI50 (OVCAR-8): > 100 µM (inactive)
GI50 (PC-3): > 100 µM (inactive)
GI50 (Malme-3M): > 100 µM (inactive)
GI50 (MCF7): > 100 µM (inactive)
GI50 (ACHN): > 100 µM (inactive)
GI50 (SK-OV-3): > 100 µM (inactive)
GI50 (HT-29): > 100 µM (inactive)
GI50 (M14): > 100 µM (inactive)
GI50 (RXF 393): > 100 µM (inactive)
GI50 (UACC-62): > 100 µM (inactive)
GI50 (COLO 205): > 100 µM (inactive)
GI50 (NCI/ADR-RES): > 100 µM (inactive)
GI50 (NCI-H522): > 100 µM (inactive)
GI50 (OVCAR-3): > 100 µM (inactive)
GI50 (MDA-N): > 100 µM (inactive)
GI50 (CAKI-1): > 100 µM (inactive)
GI50 (CCRF-CEM): > 100 µM (inactive)
GI50 (EKVX): > 100 µM (inactive)

CC12OC(=O)[C@@]3(O)CCC4C(C[C@H]5O[C@]56CC=CC(=O)[C@]46C)C45OC[C@H]6C(=O)O[C@@H]1C[C@@]6(C)[C@H](C4=O)C23O5 (some centres undefined)
GI50 (NCI-H226): 2.7 µM (inactive)
GI50 (SK-MEL-2): 3.01 µM (inactive)
GI50 (OVCAR-8): 0.955 µM (active)
GI50 (PC-3): 3.13 µM (inactive)
GI50 (Malme-3M): 1.36 µM (inactive)
GI50 (MCF7): 0.578 µM (active)
GI50 (ACHN): 1.84 µM (inactive)
GI50 (SK-OV-3): 5.53 µM (inactive)
GI50 (HT-29): 2.11 µM (inactive)
GI50 (M14): 1.57 µM (inactive)
GI50 (RXF 393): 0.39 µM (active)
GI50 (UACC-62): 0.971 µM (active)
GI50 (COLO 205): 0.601 µM (active)
GI50 (NCI/ADR-RES): 8.51 µM (inactive)
GI50 (NCI-H522): 0.269 µM (active)
GI50 (OVCAR-3): 0.676 µM (active)
GI50 (MDA-N): 3.4 µM (inactive)
GI50 (CAKI-1): 2.64 µM (inactive)
GI50 (CCRF-CEM): 0.233 µM (active)
GI50 (EKVX): 3.28 µM (inactive)
